Assay results as given in patent US8097650B2, “Method of treating a condition associated with phosphorylation of TASK-1” (The Trustees of Columbia University In The City of New York, priority 2005, dated 2012).

Assays:
[1] = system: murine TASK-1; assay: TASK-1 current expressed in CHO cells (whole-cell ramp clamp); format: cell-based, mouse
Outline: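 CHO cells transiently expressing murine TASK-1, with GFP or CD8 used to identify transfected cells, were studied 48 h after transfection. Whole-cell ramp-clamp recording at room temperature in Tyrode's pH 7.4 with a K-aspartate pipette solution. Records were corrected for a −9.8 mV junction potential and given as mean±SEM.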

[2] = system: atrial fibrillation; assay: Peri-operative atrial fibrillation dog model; format: in vivo
Procedure: FIG. 29. […] Peri-operative AF was induced in a dog three days after a right atriotomy by brief, rapid pacing. Routinely, this procedure results in AF that continues for at least 30 min and is only stopped by electrical cardioversion. Panel A depicts an EKG trace of the animal just prior to the induction of AF. This run of AF continued for 30 min and the animal was shocked into a normal sinus rhythm (NSR). After 15 min, a second run of AF was induced and a recording of the EKG obtained during this period of AF is shown in Panel B. 20 min later, ONO-RS-082 (0.7 mg/kg) was infused over 2 min. The heart rate slowed within 1 min of the administration of the drug and the EKG normalized within 5 min and persisted in NSR for over an hour at which point the experiment was terminated (Panel C).
Peri-operative AF was induced in a dog three days after a right atriotomy by brief, rapid pacing. Routinely, this procedure results in AF that continues for at least 30 min and is only stopped by electrical cardioversion. Panel A of FIG. 29 depicts an EKG trace of the animal just prior to the induction of AF. This run of AF continued for 30 min and the animal was shocked into a normal sinus rhythm (NSR). After 15 min, a second run of AF was induced and a recording of the EKG obtained during this period of AF is shown in Panel B. 20 min later, ONO-RS-082 (0.7 mg/kg) was infused over 2 min. Following administration of the drug, the heart rate slowed within 1 min of the administration of the drug and the EKG normalized within 5 min and persisted in NSR for over an hour at which point the experiment was terminated (FIG. 29, Panel C).

| SMILES | TASK-1 current density in the presence of drug ([1]; +30 mV, C-PAF 185 nM or PMA 100 nM, no peptide) | inhibition of TASK-1 current ([1]; +30 mV, PMA 100 nM (n=17), C-PAF 185 nM (n=20)) | time for decrease in TASK-1 current to reach steady state ([1]; C-PAF 185 nM) | decrease in the mean current density ([1]; C-PAF 185 nM, +30 mV, n=9) | effect on expressed TASK-1 current ([1]; C-PAF 185 nM, Example 1) | TASK-1 current density after drug ([1]; PKCε-inhibitor peptide 100 nM in pipette, C-PAF 185 nM or PMA 100 nM) | I-V relation after washout, deviation from control value ([1]; after washout of C-PAF 185 nM) | C-PAF inhibition of TASK-1 current ([1]; modified Tyrode's, elevated K+) | C-PAF-induced inhibition of TASK-1 ([1]; scrambled peptide in pipette) | effect on atrial fibrillation ([2]; 0.7 mg/kg) | persistence in normal sinus rhythm ([2]; 0.7 mg/kg infused over 2 min) | time to normalization of EKG ([2]; 0.7 mg/kg infused over 2 min) | time to slowing of heart rate after administration ([2]; 0.7 mg/kg infused over 2 min) |
| --- | --- | --- | --- | --- | --- | --- | --- | --- | --- | --- | --- | --- | --- |
| CCCCCCCCCCCCCCCCOC[C@H](COP(=O)([O-])OCC[N+](C)(C)C)OC(=O)NC [C-PAF, carbamyl-platelet-activating factor] | 60.2±14.3 pA/pF | 12.1±1.0% | ≤ 2 min | 12% | reduced | 25.4±12.4 pA/pF | ≤ 5% | 10.2±1.8% | 8.4±1.5% |  |  |  |  |
| CCCCCc1ccc(C=CC(=O)Nc2cc(Cl)ccc2C(=O)O)cc1 [ONO-RS-082] |  |  |  |  |  |  |  |  |  | halts atrial fibrillation | over an hour | ≤ 5 min | ≤ 1 min |
